The results in this text go back to patent US10588879B2, “Treatment of age-related macular degeneration” (Aurin Biotech Inc., priority 2011, dated 2020).

Assay [1] has as its system classical complement pathway. The experiment in a line: CH50 assay, human serum, sensitized sheep red blood cell hemolysis. It counts as cell-based. Particulars: sensitized sheep red blood cells, 1 hour at 37° C., read-out: IC50, inhibition of human complement-mediated red blood cell hemolysis. As to the method:
To evaluate the strength of blockade of the classical complement pathway by the low molecular weight products of the aurin tricarboxylic acid complex, (i.e. ATA plus AQA plus AHA), the standard CH50 assay was employed. Sheep red blood cells were sensitized by incubation overnight with rabbit anti sheep red blood cell antibody. Then dilutions of serum, with and without various amounts of the low molecular weight aurin tricarboxylic acid fraction (ATAC), were incubated with the sensitized red blood cells for 1 hour at 37° C. The incubates were centrifuged at 5,000 rpm for 10 min. The hemoglobin released into the serum from red blood cells that had been destroyed by complement attack, was determined by reading the optical density (OD) at 405 nm. As a positive control, red blood cells were 100% lysed with water, and as a negative control, no serum was added to the incubate.

The target of assay [2] is T1, membrane attack complex (addition of C9 to C5b678) (Homo sapiens, UniProt P02748).
T1 construct: from tissue; host or cells: normal human serum (with antibody-sensitized sheep red blood cells)
Put plainly: Western blot variation of CH50 assay: stage of complement blockade. The format is biochemical. Particulars: human serum diluted 16 fold, pre-treated 30 min; blots with antibodies to C6, C7, C8, C9. The protocol:
Normal human serum was pre-treated with aliquots of aqueous solutions of ATA, AQA, AHA and ATAC prior to adding sheep red blood cells sensitized to human complement. The reaction mixtures were incubated at 37° C. for 1 h. Aliquots were loaded on 10% polyacrylamide gels and subjected to SDS-PAGE. Proteins were transferred to membranes and developed with appropriate primary antibodies to complement proteins (Table 1): FIG. 4A: Western blots of membranes developed with antibodies to C1q, C3, C4 and C5. Lane 1, untreated serum; lane 2, serum with red blood cells added; lane 3 serum with red blood cells protected with ATAC. Notice that in untreated serum, bands for C1q, C3, C4, and C5 were readily detected. In lanes 2 and 3, the activated products C3d, C4d, and C5a were detected indicating opsonization had taken place. […] It can be seen that C5b-9 is […] detected upon probing with C6, C7, C8 and C9, thus establishing that the ATAC block was at the C9 stage. […]
To determine at which stage of assembly of the membrane attack complex was being blocked, additional analyses were carried. […] The C6 antibody detected C5b6, C5b67, and C5b678. The C7 antibody detected C5b67 and C5b678, while the C8 antibody detected C5b678. […]
Background: In western blotting, separated proteins are transferred to a membrane and probed.

Read-outs that look alike come from different tables or passages of the source.

T1 sequence (P02748 22-559, one chain of several): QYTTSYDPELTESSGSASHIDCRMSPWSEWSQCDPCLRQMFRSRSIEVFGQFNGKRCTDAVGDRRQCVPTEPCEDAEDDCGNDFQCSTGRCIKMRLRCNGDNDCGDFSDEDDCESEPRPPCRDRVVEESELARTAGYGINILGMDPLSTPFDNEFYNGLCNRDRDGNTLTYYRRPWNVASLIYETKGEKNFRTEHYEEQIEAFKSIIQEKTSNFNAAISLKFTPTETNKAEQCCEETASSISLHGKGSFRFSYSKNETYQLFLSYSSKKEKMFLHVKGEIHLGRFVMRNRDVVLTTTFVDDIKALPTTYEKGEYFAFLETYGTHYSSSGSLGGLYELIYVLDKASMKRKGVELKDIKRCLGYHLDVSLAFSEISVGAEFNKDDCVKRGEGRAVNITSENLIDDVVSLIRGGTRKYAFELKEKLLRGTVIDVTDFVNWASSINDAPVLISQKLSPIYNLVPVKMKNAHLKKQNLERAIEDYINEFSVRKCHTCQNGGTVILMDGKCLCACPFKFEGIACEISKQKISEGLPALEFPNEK

Usually IC50 stands for the concentration at which inhibition is half-maximal. Turning to “5,5′-((3-carboxy-5-((3-carboxy-4-oxocyclohexa-2,5-dien-1-ylidene)methyl)-4-hydroxybenzyl)-4-hydroxyphenyl)methylene)bis(2-hydroxybenzoic acid) [AHA]”, the IC50 in assay [1] was determined as 0.559 µM. Further, the “stage at which membrane attack complex formation is arrested” value in assay [2] is on record as “becomes arrested at the C8 stage”.
For `O=C(O)C1=CC(=Cc2cc(C(c3ccc(O)c(C(=O)O)c3)c3ccc(O)c(C(=O)O)c3)cc(C(=O)O)c2O)C=CC1=O` [AQA] the same measures were 0.576 µM and “becomes arrested at the C8 stage”.
`O=C(O)C1=CC(=C(c2ccc(O)c(C(=O)O)c2)c2ccc(O)c(C(=O)O)c2)C=CC1=O` [ATA, 5,5′-((3-carboxy-4-oxocyclohexa-2,5-dienn-1-ylidene)methylene)bis(2-hydroxybenzoic acid)]: the concentration for half-maximal inhibition (IC50) in assay [1] (Erythrocyte) was determined as 0.544 µM.
